Molecules are shown by their SMILES. Where two headings read alike, the source gives them in different places.

The values below come from patent US5747482A, “Methods and compositions to inhibit keratinocyte proliferation” (priority 1996, dated 1998).

The test system of one data set is Keratinocytes. Description: Effect on cell differentiation, keratinocytes grown 4 days before gallium maltol, Example 4. The following applies: for CELL NUMBER, clear squamous / CELL NUMBER, squamous / CELL NUMBER, proliferative: 3 days after 4 days growth; for CELL NUMBER, clear squamous: control 2.0 ± 0.03%; for CELL NUMBER, squamous: control 13.3 ± 2.6%; for CELL NUMBER, proliferative: control 83.6 ± 3.0%. The data set is classed as cell-based, human. Here is the method:
(§1) Adult human keratinocytes from pooled donor skin were obtained from commercial sources (Cascade Biologics, Portland, Oreg., U.S.A.) and placed in 150 cm^2 bottom area culture flasks using culture medium 154 supplemented with HKGS (about 1%). At 80% confluency, cells were harvested with trypsin and cryopreserved until required.
Culture flasks (75 cm^2 bottom area) were seeded with keratinocytes at about 2,500 cells per cm^2 as before. After 24 hours, the medium in three (3) flasks were changed to media (154) with the calcium content increased from the normal 0.2 mM to 1.0 mM ("high calcium") plus gallium maltol (GaM) at the following concentrations: 1×10^-5 M, 5×10^-5 M, and 1×10^-4 M. The culture was continued for 7 days when cells were about 75% confluent in the controls (no GaM). Media supplemented as above were changed every 2 days. Finally, media were aspirated and cells rinsed with PBS before exposure to trypsin (0.025%)/EDTA (0.01%). When dislodged, they were collected in centrifuge tubes and the flasks rinsed with PBS:trypsin neutralizing solution (Clonetics, San Diego, Calif., U.S.A.; 1:1 v/v) and added to the cell suspension. The total volume of suspensions was approximately 8 to 10 mL. Aliquots of these suspensions were counted on the hemocytometer in terms of:
(1) small, light or dark keratinocytes, referred to as "proliferating";
(2) larger, squamous keratinocytes, with intracellular structural elements; and
(3) clear squamous cells without structural elements.
In a subsequent experiment, flasks of keratinocytes were grown in medium 154 for 4 days after seeding, before switching to the high calcium medium without gallium maltol (control) or with gallium maltol at final concentrations of 5×10^-5, 1×10^-5 or 1×10^-6 M. There were 2 or 3 flasks in each group. Culture was continued for another 3 days, when the keratinocytes were harvested and counted as before.

For data set [1], the system named is keratinocyte cells. In kind it is cell-based, human. The following applies: keratinocytes, 48 h, 500 µM. The protocol:
as §1
(§2) Culture was renewed for a further 24 hours. At this time, media were removed and discarded, and the cells lysed with 200 μL/well of the solution provided in the Cell Death Detection Kit ELISA Plus (Boehringer Mannheim Biochemicals, Indianapolis, Ind., U.S.A., catalogue number 1774425). Aliquots of the lysate (20 μL) from each of 2 or 3 wells were assayed for nucleosomal enrichment following the kit instructions.
The evaluation of apoptosis of keratinocytes was conducted to determine the relative affect on apoptosis achieved by gallium maltol, gallium nitrate and maltol. Specifically, keratinocyte cells were seeded in 12 well plates seed using culture medium 154. Cultures were continued for 4 days and the medium was changed to medium 154 with 1.2 mM Ca^+2 either without supplement or with one of the following supplements:
1. gallium maltol at a final concentration of 5×10^-4 M;
2. gallium nitrate at a final concentration of 5×10^-4 M;
3. maltol at a concentration of 15×10^-4 M; and
4. CAM at a concentration of 1×10^-5 M.
Three (3) wells were used in each group. The final amount of medium was 300 μL in each well. Culture was continued for 2 days. Bars represent absorbance at 405 nm minus the absorbance at 492 nm.

For data set [2], the system named is keratinocyte cells. In kind it is cell-based, human. The following applies: below 5×10^-4 M, 24 hours treatment.
From the text: as §1
The induction of apoptosis is a critical feature in the programmed cell death as it relates to disease conditions such as cancer, psoriasis, etc. where the uncontrolled proliferation of "immortal" cells such as keratinocytes is a causative feature of the disease. This example compares the ability of gallium maltol to induce apoptosis as compared to negative control (no gallium maltol), and positive control (CAM--an agent known to strongly induce apoptosis). The ability for gallium maltol to effect apoptosis was also measured by the inhibitory effect of ATA.
Specifically, keratinocyte cells were grown using medium 154 in 24 well plates seed with 2,500 cells/cm^2 as described above. Cultures were continued for 3 or 6 days when the cells had achieved about 20 or 60% confluence respectively. On these 2 occasions, media were aspirated from groups of 3 or 4 wells and replaced with high Ca^+2 medium either without supplement or with one of the following supplements:
1. Gallium maltol at a final concentration of one of the following: (a) 5×10^-4 M, (b) 1×10^-4 M, (c) 5×10^-5 M, (d) 1×10^-5 M, and (e) 1×10^-6 M;
4. As in (3) plus CAM at 1×10^-5 or 1×10^-6 M; and
5. As in (3) plus gallium maltol at 1×10^-4 or 2.5×10^-4 M;
as §2

For data set [3] the following is noted: distilled deionized water. From the text: Under some conditions, water may also be incorporated into the structure. […] The complex can be recrystallized from ethanol or other solvents to increase purity.
Data set [4] has as its system Adult human keratinocytes. The data set is described as follows: Keratinocyte growth inhibition (crystal violet staining; confirmatory hexosaminidase activity), Example 2. In kind it is cell-based. From the text: Adult human keratinocytes from pooled donor skin were obtained from commercial sources (Cascade Biologics, Portland, Oreg., U.S.A.) and placed in 150 cm^2 bottom area culture flasks using culture medium 154 supplemented with HKGS (about 1%). At 80% confluency, cells were harvested with trypsin and cryopreserved until required. At the start of the experiments, the required number of vials of keratinocytes was thawed, and the keratinocytes were placed in culture in 24 well plates at about 2,500 cells/cm^2 using the same culture medium as described above. After 24 hours (to allow attachment), the medium was changed to fresh 154 supplemented with HKGS (about 1%) and gallium maltol. Specifically, the fresh medium was prepared by addition of a sufficient amount of a stock solution to provide for six different compositions having a final gallium concentration of 10^-4 M, 10^-5 M, 10^-6 M, 10^-8 M, 10^-10 M, and 10^-12 M. The stock solution was prepared by adding 22.25 mg of gallium maltol to 50 mL of 154 medium and then passing the solution through a 0.2 μm filter and storing at 4° C. Media were replaced every 2 or 3 days. […]

`Cc1occc(=O)c1[O-].Cc1occc(=O)c1[O-].Cc1occc(=O)c1[O-].[Ga+3]` [gallium maltol, neutral 3:1 gallium complex of maltol]: the “CELL NUMBER, clear squamous” value is on record as 3.1 ± 0.06% in the data set on Keratinocytes (1×10^-5 M) and 3.5 ± 0.06% in the data set with Keratinocytes (5×10^-5 M). Moreover, the entries for the “CELL NUMBER, squamous” value in the data set on Keratinocytes (1×10^-5 M) and in the data set on Keratinocytes (5×10^-5 M) were 16.0 ± 3.1% and 14.0 ± 1.1%, respectively. Besides, the “CELL NUMBER, proliferative” value in the data set with Keratinocytes (1×10^-5 M) is 80.8 ± 2.0%; with Keratinocytes (5×10^-5 M), 82.4 ± 0.91%. Besides, the “differences in cell differentiation as determined by the proportion of cells” value with Keratinocytes (5×10^-5 M, 1×10^-5 M (1×10^-6 M not counted), 4 days growth, then 3 days exposure) is recorded as “no significant differences were observed in cell differentiation”. The “increase in apoptosis compared to control” value in the data set with keratinocyte cells [1] is listed as ~19 fold. Besides, the “increase in apoptosis at lower concentrations” value in the data set on keratinocyte cells [2] (cultured 3 days prior, FIG. 5) is reported as “failed to provide such a significant increase in apoptosis”; in the data set with keratinocyte cells [2] (cultured 6 days prior, FIG. 6), “smaller increases in apoptosis at lower concentrations”. Moreover, the solubility result in data set [3] is “about 24 millimolar”. In data set [4] (10^-4 M, FIG. 1 (crystal violet) and FIG. 2 (hexosaminidase), 100 µM), the “keratinocyte growth reduced as compared to control” value was 60 to 90%. In data set [4] (concentrations below 10^-4 M, FIG. 2 (hexosaminidase)), the “effect on keratinocyte growth at lower concentrations” value is listed as “may, in fact, slightly promote keratinocyte growth”.
